Results as given in ChEMBL document CHEMBL1759870, “Identification, structural properties and chelating capacity of miltipolone as a broad-spectrum inhibitor to cancer cells” (Eur J Med Chem, 2011).
Calls of active or inactive are those of the source.

How the values were obtained:
Assay type in all cases: functional, cell-based
HeLa [1] = assay: Antiproliferative activity against human HeLa cells at 2 uM after 96 hrs by MTT assay in presence of ferric ion
MCF7 [2] = assay: Antiproliferative activity against human MCF7 cells at 2 uM after 96 hrs by MTT assay in presence of ferric ion
Jurkat [3] = assay: Antiproliferative activity against human Jurkat cells at 2 uM after 96 hrs by MTT assay in presence of ferric ion
HT-1080 [4] = assay: Antiproliferative activity against human HT1080 cells at 2 uM after 96 hrs by MTT assay in presence of ferric ion
A-375 [5] = assay: Antiproliferative activity against human A375 cells at 2 uM after 96 hrs by MTT assay in presence of ferric ion
NCI-N87 [6] = assay: Antiproliferative activity against human NCI-N87 cells at 2 uM after 96 hrs by MTT assay in presence of ferric ion
PANC-1 [7] = assay: Antiproliferative activity against human PANC1 cells at 2 uM after 96 hrs by MTT assay in presence of ferric ion
A549 [8] = assay: Antiproliferative activity against human A549 cells at 2 uM after 96 hrs by MTT assay in presence of cobalt ion
Bel-7402 [9] = assay: Antiproliferative activity against human Bel7402 cells at 2 uM after 96 hrs by MTT assay in presence of cobalt ion
HepG2 [10] = assay: Antiproliferative activity against human HepG2 cells at 2 uM after 96 hrs by MTT assay in presence of cobalt ion
HeLa [11] = assay: Antiproliferative activity against human HeLa cells at 2 uM after 96 hrs by MTT assay in presence of cobalt ion
MCF7 [12] = assay: Antiproliferative activity against human MCF7 cells at 2 uM after 96 hrs by MTT assay in presence of cobalt ion
Jurkat [13] = assay: Antiproliferative activity against human Jurkat cells at 2 uM after 96 hrs by MTT assay in presence of cobalt ion
HT-1080 [14] = assay: Antiproliferative activity against human HT1080 cells at 2 uM after 96 hrs by MTT assay in presence of cobalt ion
A-375 [15] = assay: Antiproliferative activity against human A375 cells at 2 uM after 96 hrs by MTT assay in presence of cobalt ion
NCI-N87 [16] = assay: Antiproliferative activity against human NCI-N87 cells at 2 uM after 96 hrs by MTT assay in presence of cobalt ion
PANC-1 [17] = assay: Antiproliferative activity against human PANC1 cells at 2 uM after 96 hrs by MTT assay in presence of cobalt ion
A549 [18] = assay: Antiproliferative activity against human A549 cells at 2 uM after 96 hrs by MTT assay in presence of zinc ion
Bel-7402 [19] = assay: Antiproliferative activity against human Bel7402 cells at 2 uM after 96 hrs by MTT assay in presence of zinc ion
HepG2 [20] = assay: Antiproliferative activity against human HepG2 cells at 2 uM after 96 hrs by MTT assay in presence of zinc ion
HeLa [21] = assay: Antiproliferative activity against human HeLa cells at 2 uM after 96 hrs by MTT assay in presence of zinc ion
MCF7 [22] = assay: Antiproliferative activity against human MCF7 cells at 2 uM after 96 hrs by MTT assay in presence of zinc ion
Jurkat [23] = assay: Antiproliferative activity against human Jurkat cells at 2 uM after 96 hrs by MTT assay in presence of zinc ion
HT-1080 [24] = assay: Antiproliferative activity against human HT1080 cells at 2 uM after 96 hrs by MTT assay in presence of zinc ion
A-375 [25] = assay: Antiproliferative activity against human A375 cells at 2 uM after 96 hrs by MTT assay in presence of zinc ion
NCI-N87 [26] = assay: Antiproliferative activity against human NCI-N87 cells at 2 uM after 96 hrs by MTT assay in presence of zinc ion
PANC-1 [27] = assay: Antiproliferative activity against human PANC1 cells at 2 uM after 96 hrs by MTT assay in presence of zinc ion
A549 [28] = assay: Antiproliferative activity against human A549 cells at 2 uM after 96 hrs by MTT assay in presence of manganese ion
Bel-7402 [29] = assay: Antiproliferative activity against human Bel7402 cells at 2 uM after 96 hrs by MTT assay in presence of manganese ion
HepG2 [30] = assay: Antiproliferative activity against human HepG2 cells at 2 uM after 96 hrs by MTT assay in presence of manganese ion
HeLa [31] = assay: Antiproliferative activity against human HeLa cells at 2 uM after 96 hrs by MTT assay in presence of manganese ion
MCF7 [32] = assay: Antiproliferative activity against human MCF7 cells at 2 uM after 96 hrs by MTT assay in presence of manganese ion
Jurkat [33] = assay: Antiproliferative activity against human Jurkat cells at 2 uM after 96 hrs by MTT assay in presence of manganese ion
HT-1080 [34] = assay: Antiproliferative activity against human HT1080 cells at 2 uM after 96 hrs by MTT assay in presence of manganese ion
A-375 [35] = assay: Antiproliferative activity against human A375 cells at 2 uM after 96 hrs by MTT assay in presence of manganese ion
NCI-N87 [36] = assay: Antiproliferative activity against human NCI-N87 cells at 2 uM after 96 hrs by MTT assay in presence of manganese ion
PANC-1 [37] = assay: Antiproliferative activity against human PANC1 cells at 2 uM after 96 hrs by MTT assay in presence of manganese ion
Bel-7402 [38] = assay: Antiproliferative activity against human Bel7402 cells at 2 uM after 96 hrs by MTT assay in presence of 1 uM of ferrous ion

Measured: Activity

Cc1cc2c(cc(O)c1=O)[C@@]13CCCC(C)(C)[C@@H]1C[C@@H]2OC3 [MILTIPOLONE]
active: all assays above
